Test results reported in US20150329558A1, “FUSED HETEROCYCLIC COMPOUNDS AS ION CHANNEL MODULATORS” (Gilead Sciences, Inc., priority 2011, published 2015).
Like-named read-outs stand apart in the source and are kept apart here.

How the values were obtained:
[1] = Microsomal stability assay, dog; assay type: in vitro ADME; details: metabolic stability, dog liver microsomes 0.5 mg/mL, substrate 3 uM
How it was run: (§1)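 Liver microsomes at 0.5 mg/mL protein in 100 mM KPO4 buffer, incubated with 3 uM compound and NADPH-regenerating system, run in duplicate. Samples taken at 2, 12, 25, 45 and 65 min and quenched in MeOH/ACN/water before analysis.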

[2] = Microsomal stability assay, rat; assay type: in vitro ADME; details: metabolic stability, rat liver microsomes 0.5 mg/mL, substrate 3 uM
How it was run: as §1

[3] = target: wild-type human cardiac sodium channel, hNav1.5 (late INa) (Homo sapiens, UniProt Q14524); experiment: Late INa screening assay (QPatch whole cell patch clamp); assay type: cell-based
wild-type human cardiac sodium channel, hNav1.5 (late INa), sequence (Q14524 whole entry): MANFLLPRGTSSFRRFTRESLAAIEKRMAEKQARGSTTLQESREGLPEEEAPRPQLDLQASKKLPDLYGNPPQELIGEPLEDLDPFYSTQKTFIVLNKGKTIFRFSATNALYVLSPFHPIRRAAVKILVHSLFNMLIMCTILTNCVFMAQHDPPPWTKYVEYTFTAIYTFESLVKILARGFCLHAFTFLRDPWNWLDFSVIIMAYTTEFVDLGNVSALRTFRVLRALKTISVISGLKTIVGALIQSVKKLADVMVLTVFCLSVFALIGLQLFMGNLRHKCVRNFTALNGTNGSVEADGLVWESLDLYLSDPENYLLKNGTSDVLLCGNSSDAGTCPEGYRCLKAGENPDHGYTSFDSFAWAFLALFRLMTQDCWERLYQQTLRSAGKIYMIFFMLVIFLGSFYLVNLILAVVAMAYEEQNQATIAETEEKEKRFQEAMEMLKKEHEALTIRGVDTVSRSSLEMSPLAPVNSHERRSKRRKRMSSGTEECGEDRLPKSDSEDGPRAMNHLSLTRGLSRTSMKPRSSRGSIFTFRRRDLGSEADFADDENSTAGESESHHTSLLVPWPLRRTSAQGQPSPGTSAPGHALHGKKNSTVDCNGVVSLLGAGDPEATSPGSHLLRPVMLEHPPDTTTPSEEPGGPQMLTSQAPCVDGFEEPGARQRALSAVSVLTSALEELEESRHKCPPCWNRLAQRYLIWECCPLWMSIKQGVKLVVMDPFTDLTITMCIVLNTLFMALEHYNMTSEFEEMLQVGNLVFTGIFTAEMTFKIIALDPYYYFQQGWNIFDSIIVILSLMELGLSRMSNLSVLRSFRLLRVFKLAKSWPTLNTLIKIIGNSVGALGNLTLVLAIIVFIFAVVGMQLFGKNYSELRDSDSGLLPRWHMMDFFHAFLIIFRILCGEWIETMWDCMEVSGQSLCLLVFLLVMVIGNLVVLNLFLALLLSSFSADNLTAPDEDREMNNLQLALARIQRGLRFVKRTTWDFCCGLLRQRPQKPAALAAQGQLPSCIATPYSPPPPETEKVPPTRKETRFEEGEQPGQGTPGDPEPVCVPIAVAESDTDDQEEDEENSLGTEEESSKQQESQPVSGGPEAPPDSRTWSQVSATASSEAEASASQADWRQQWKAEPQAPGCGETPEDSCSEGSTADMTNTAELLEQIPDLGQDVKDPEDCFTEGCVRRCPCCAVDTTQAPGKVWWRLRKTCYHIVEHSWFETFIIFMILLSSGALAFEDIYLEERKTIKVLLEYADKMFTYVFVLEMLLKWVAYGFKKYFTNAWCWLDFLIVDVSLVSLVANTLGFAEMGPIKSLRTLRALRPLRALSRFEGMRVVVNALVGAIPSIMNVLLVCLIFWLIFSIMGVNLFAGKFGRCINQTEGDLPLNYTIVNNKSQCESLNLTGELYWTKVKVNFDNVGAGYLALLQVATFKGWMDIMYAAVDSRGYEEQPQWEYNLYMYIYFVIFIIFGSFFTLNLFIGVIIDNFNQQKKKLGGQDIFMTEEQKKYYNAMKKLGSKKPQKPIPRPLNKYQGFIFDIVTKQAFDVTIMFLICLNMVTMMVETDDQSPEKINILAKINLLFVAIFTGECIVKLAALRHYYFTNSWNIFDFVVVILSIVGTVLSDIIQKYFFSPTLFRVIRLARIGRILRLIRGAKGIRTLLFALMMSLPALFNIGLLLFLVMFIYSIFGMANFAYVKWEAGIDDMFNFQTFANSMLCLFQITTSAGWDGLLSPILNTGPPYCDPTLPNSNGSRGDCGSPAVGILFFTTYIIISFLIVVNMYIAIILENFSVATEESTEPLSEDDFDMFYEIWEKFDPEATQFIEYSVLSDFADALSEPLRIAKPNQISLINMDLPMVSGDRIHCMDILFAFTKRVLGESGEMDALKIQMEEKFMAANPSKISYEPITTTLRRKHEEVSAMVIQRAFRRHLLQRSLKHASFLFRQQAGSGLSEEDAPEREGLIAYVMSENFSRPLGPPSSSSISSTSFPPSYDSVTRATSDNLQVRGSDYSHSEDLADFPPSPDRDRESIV
How it was run: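 Compounds tested at 1 μM final in extracellular solution against tefluthrin (10 μM)-enhanced late current. Automated patch clamp (23-25° C) on HEK293 expressing alpha subunit alone: −120 mV holding, 250 ms depolarization to −20 mV every 10 s. Read-out is percent inhibition of mean current over 225–250 ms.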

[4] = target: wild-type human cardiac sodium channel, hNav1.5 (peak INa) (Homo sapiens, UniProt Q14524); experiment: Peak INa screening assay (tonic and use-dependent block); assay type: cell-based
wild-type human cardiac sodium channel, hNav1.5 (peak INa), sequence (Q14524 whole entry): as above
Description: The late sodium current (Late INa) and peak sodium current (Peak INa) assays are performed on an automated electrophysiology platform, QPatch 16× (Sophion Bioscience, Copenhagen, Denmark), which uses the whole cell patch clamp technique to measure currents through the cell membrane of up to 16 cells at a time. The assay uses an HEK293 (human embryonic kidney) cell line heterologously expressing the wild-type human cardiac sodium channel, hNav1.5, purchased from Millipore (Billerica, Mass.). No beta subunits were coexpressed with the Na channel alpha subunit. Cells are maintained with standard tissue culture procedures and stable channel expression is maintained with 400 μg/mL Geneticin in the culture medium. […] Experiments are carried out at 23-25° C. For both the Late INa and Peak INa assays, series resistance compensation is set to 100% and series resistance and whole-cell compensation are performed automatically. Currents are digitized at 25 kHz and low-pass filtered at 12 kHz and 10 kHz for the late and peak INa assays, respectively. Currents through open sodium channels are automatically recorded and stored in the Sophion Bioscience Oracle database (Sophion Bioscience, Copehagen, Denmark). Analysis is performed using QPatch Assay and database software and data are compiled in Excel. Compound stocks are routinely made by the Gilead Sample Bank in plastic vials to 10 mM in dimethyl sulfoxide (DMSO). In some cases, when compounds are not soluble in DMSO, they are made in 100% ethanol. Stocks are sonicated as necessary. […] The intracellular solution used to perfuse the inside of the cells for both the Late INa and Peak INa assays contains: 120 mM CsF, 20 mM CsCl, 5 mM EGTA, 5 mM HEPES and pH adjusted to 7.4 with CsOH. Compounds are diluted in extracellular solution to 1 μM in glass vials and then transferred to glass well plates before robotic addition to the cells. […] Compounds were also evaluated for their effect in several other assays, including their effect on Peak INa. Good separation between the concentrations of test compound to reduce late and peak INa is beneficial to enable separation of the desired effect to reduce late INa-induced electrical and mechanical dysfunction from the undesired effect to reduce peak INa, which can lead to slowing or block of conduction of electrical excitation in the heart. It is contemplated that the compounds of Formula I avoid significant block of peak INa. Since the peak INa in the cells used herein can be very large, introducing artifacts in the recording, the concentration of Na^+ in the bath can be reduced to 20 mM and a nonpermeant cation added to compensate for the Na^+ that was removed to maintain the osmolarity and ionic strength of the solution (see solution details below). Analysis of peak INa generally requires correction for rundown before determining the % block of peak current by the tested compound. […] A low stimulation frequency of 0.1 Hz was used to determine the effect of the test compound when the channel spent most of the time in the resting (closed) state and provides information about Tonic Block (TB). A higher stimulation frequency (3 Hz) was used to measure block of the channel when it spent more time in the activated and inactivated states and provided a measure of Use-Dependent Block (UDB). Use-dependent block refers to the accumulation of block with increased frequency of channel activation. Block of cardiac peak INa by compounds of this invention is increased with an increase in the frequency of stimulation from 0.1 to 1-5 Hz (frequencies encountered either in the normal heart or during tachycardia). It is therefore expected that reduction of peak INa by compounds of this invention will be greater at high heart rates, such as those during tachyarrhythmias, than at normal heart rates. […]

[5] = Microsomal stability assay, human; assay type: in vitro ADME; details: metabolic stability, human liver microsomes 0.5 mg/mL, substrate 3 uM
How it was run: as §1

[6] = percent block of late INa, compound at 1 μM, 10 μM Tefluthrin, HEK293 hNav1.5, read-out: Late INa 1 μM
[7] = tonic block of peak INa, 0.1 Hz, 1 μM, read-out: Peak TB 1 μM
[8] = use-dependent block of peak INa, 3 Hz, 1 μM, read-out: Peak UDB 1 μM
[9] = % inhibition at 1 μM, read-out: NAv1.5*-LATE-
[10] = % inhibition at 1 μM, tonic block, read-out: NAv1.5*-PEAK-TB-
[11] = % inhibition at 1 μM, use-dependent block 3 Hz, read-out: NAv1.5*-PEAK-UDB-3 HZ-

Row | Structure (SMILES) | MS Dog THalf [1] [min] | MS Rat THalf [2] [min] | MS Human THalf [5] [min] | inhibition at 1 µM [3, 6] [%] | inhibition at 1 µM [4, 7] [%] | inhibition at 1 µM [4, 8] [%] | inhibition at 1 µM [3, 9] [%] | inhibition at 1 µM [4, 10] [%] | inhibition at 1 µM [4, 11] [%]
1 | O=C(c1ccccn1)N1CCc2ccc(-c3ccc(C(F)(F)F)cc3)cc2C1 [IX-6, pyridin-2-yl(7-(4-(trifluoromethyl)phenyl)-3,4-dihydroisoquinolin-2(1H)-yl)methanone] | 313 | 272 | 54 | 62 | 28 | 37 |  |  | 
2 | O=C(c1ncccn1)N1CCc2ccc(-c3ccc(OC(F)(F)F)cc3)cc2C1 [IX-11, pyrimidin-2-yl(7-(4-(trifluoromethoxy)phenyl)-3,4-dihydroisoquinolin-2(1H)-yl)methanone] | 332 | 348 | 145 | 44 | 17 | 22 | 44 | 17 | 22
3 | O=C(c1ncccc1F)N1CCc2ccc(-c3ccc(C(F)(F)F)cc3)cc2C1 [IX-25, (3-fluoropyridin-2-yl)(7-(4-(trifluoromethyl)phenyl)-3,4-dihydroisoquinolin-2(1H)-yl)methanone] | 97 | 170 | 320 | 57 | 28 | 33 | 57 | 28 | 32
4 | O=C(Cc1ccccn1)N1CCc2ccc(-c3ccc(C(F)(F)F)cc3)cc2C1 [IX-29, 2-(pyridin-2-yl)-1-(7-(4-(trifluoromethyl)phenyl)-3,4-dihydroisoquinolin-2(1H)-yl)ethanone] | 138 | 48 | 33 | 45 | 10 | 12 | 45 | 10 | 12
5 | O=C(c1ncc[nH]1)N1CCc2ccc(-c3ccc(C(F)(F)F)cc3)cc2C1 [IX-57, (1H-imidazol-2-yl)(7-(4-(trifluoromethyl)phenyl)-3,4-dihydroisoquinolin-2(1H)-yl)methanone] | 245 | 132 | 159 | 44 | 10 | 6 | 44 | 10 | 6
6 | C[C@@H]1CC[C@@H](C)N1C(=O)N1CCc2ccc(-c3ccc(C(F)(F)F)cc3)cc2C1 [IX-105] | 74 | 14 | 35 | 43 | 6 | 3 | 43 | 6 | 3

More lines, main results first:

Row | MS Dog THalf [1] [min] | MS Rat THalf [2] [min] | MS Human THalf [5] [min] | Structure (SMILES) | inhibition at 1 µM [3, 6] [%] | inhibition at 1 µM [4, 7] [%] | inhibition at 1 µM [4, 8] [%] | inhibition at 1 µM [3, 9] [%] | inhibition at 1 µM [4, 10] [%] | inhibition at 1 µM [4, 11] [%]
7 | 37 | 96 | 157 | O=c1c2cc(-c3ccc(OC(F)(F)F)cc3)ccc2cnn1CCOc1ncc(Cl)cn1 [III-37, 2-(2-(5-chloropyrimidin-2-yloxy)ethyl)-7-(4-(trifluoromethoxy)phenyl)phthalazin-1 (2H)-one] | 50 | 7 | 4 |  |  | 
8 | 31 | 24 | 54 | CC(Cn1ncc2ccc(-c3ccc(OC(F)(F)F)cc3)cc2c1=O)n1cccn1 (stereo not drawn) [III-38, 2-(2-(1H-pyrazol-1-yl)propyl)-7-(4-(trifluoromethoxy)phenyl)phthalazin-1 (2H)-one] | 52 | 9 | 11 |  |  | 
9 | 14 | 30 | 44 | O=c1c2cc(-c3ccc(OC(F)(F)F)cc3)ccc2cnn1CCOc1cnccn1 [III-39, 2-(2-(pyrazin-2-yloxy)ethyl)-7-(4-(trifluoromethoxy)phenyl)phthalazin-1 (2H)-one] | 47 | 7 | 0 |  |  | 
10 | 56 | 62 | 152 | O=c1c2cc(-c3ccc(OC(F)(F)F)cc3)ccc2cnn1CCOc1ccccn1 [III-40, 2-(2-(pyridin-2-yloxy)ethyl)-7-(4-(trifluoromethoxy)phenyl)phthalazin-1 (2H)-one] | 51 | 4 | 2 |  |  | 
11 | 114 | 44 | > 395 | O=c1c2cc(C#Cc3ccc(OC(F)(F)F)cc3)ccc2nnn1CCOc1ncccn1 [VII-1, 3-(2-(pyrimidin-2-yloxy)ethyl)-6-((4-(trifluoromethoxy)phenyl)ethynyl)benzo[d][1,2,3]triazin-4(3H)-one] | 55 | 7 | 1 |  |  | 
